The values that follow are results of earlier work, collected in US8916356B2, “Measuring thrombin activity in whole blood” (Synapse B.V., priority 2005, dated 2014).

Series [1] deals with thrombin generation in platelet rich plasma (or whole blood). The conditions noted are these: literature refs 13-16.
The conditions of series [2]: literature ref 17.

As for `COC(=O)[C@H](c1ccccc1Cl)N1CCc2sccc2C1` [clopidogrel], the “effect on thrombin generation” value in series [1] is reported as “inhibit thrombin generation”.

Consider `CC(=O)Oc1ccccc1C(=O)O` [aspirin], for which the “effect on venous thrombosis” value in series [2] was “prevents venous thrombosis”. Also, the “effect on thrombin generation” value in series [1] was “inhibit thrombin generation”.

In the case of `CCCCS(=O)(=O)N[C@@H](Cc1ccc(OCCCCC2CCNCC2)cc1)C(=O)O` [MK383], the “effect on thrombin generation” value in series [1] is listed as “inhibit thrombin generation”.

B1: abciximab (antibody, chains of the INN, looked up, V domains shown)
VH: EVQLQQSGTVLARPGASVKMSCEASGYTFTNYWMHWVKQRPGQGLEWIGAIYPGNSDTSYIQKFKGKAKLTAVTSTTSVYMELSSLTNEDSAVYYCTLYDGYYVFAYWGQGTLVTVSA
VL: EIVLTQSPVTLSVTPGDSVSLSCRASRDISNNLHWFQQTSHESPRLLIKYASQSMSGIPSRFSGSGSGTDFTLSINSVETEDFGMYFCQQTNSWPYTFGGGTKLEIK
modifications: Fab
notes: antiplatelet agent
With B1, the “effect on thrombin generation” value in series [1] was “inhibit thrombin generation”.
